Assays:
[1] = tested on: cholangiocarcinoma cell line HuCC-T1 (spheroid culture); experiment: Cell viability (CellTiter Glo) of HuCC-T1 in spheroid culture in combination with cisplatin; format: cell-based, human; conditions: for viability at 0.001 µM / viability at 0.003 µM / viability at 0.01 µM / viability at 0.03 µM / viability at 0.1 µM / viability at 0.3 µM / viability at 1 µM / viability at 3 µM / viability at 10 µM / IC50: Homo sapiens; for viability at 0.001 µM / viability at 0.003 µM / viability at 0.01 µM / viability at 0.03 µM / viability at 0.1 µM / viability at 0.3 µM / viability at 1 µM / viability at 3 µM / viability at 10 µM: HuCCT-1, 72 h, HuCC-T1 spheroid, with cisplatin 10 μmol/L, 3 days; for viability at 0.001 µM: test substance 1.0 nM; for viability at 0.003 µM: test substance 3.0 nM; for viability at 0.01 µM: test substance 10.0 nM; for viability at 0.03 µM: test substance 30.0 nM; for viability at 0.1 µM: test substance 100.0 nM; for viability at 0.3 µM: test substance 300.0 nM; for viability at 1 µM: test substance 1000.0 nM; for viability at 3 µM: test substance 3000.0 nM; for viability at 10 µM: test substance 10000.0 nM; for IC50: HuCCT-1, in combination with cisplatin (10 μmol/L); for IC50 / CI: HuCC-T1 spheroid culture; for CI: combination with cisplatin
From the text: (§1) On the combinational effect of the embodiment of the invention, the results of evaluation using a combination index (CI) which is a quantitative index of the combinational effect are shown. The CI can be calculated by the following equation according to Cancer Research, 2010, Vol. 70, pp. 440 to 446.
(§2) That is, in a case where the drugs to be used in combination are drug 1 and drug 2, the CI at a certain drug concentration is
(§3) CI={(cell viability in case of using drug 1 and drug 2 in combination)/100}/{[(cell viability in case of using drug 1)/100]×[(cell viability in case of using drug 2)/100]}
Evaluation of Antitumor Activity Against Cholangiocarcinoma Cell Line HuCC-T1 by Combined Use of Cisplatin in Spheroid Culture
(§4) Gemcitabine, cisplatin, and methanesulfonate of Compound A were used as test substances.
(§5) Gemcitabine hydrochloride (manufactured by Plantex Co., Ltd.) dissolved in dimethyl sulfoxide (DMSO) was used as gemcitabine. Cisplatin (Cat. #039-20091, manufactured by Wako Pure Chemical Industries, Ltd.) dissolved in DMSO was used as cisplatin.
The cholangiocarcinoma cell line HuCC-T1 cells were subcultured in RPMI-1640 medium supplemented with 10% serum (Cat. #10437-028, manufactured by Thermo Fisher Scientific Inc.). During this test, all cell cultures were carried out in a CO2 incubator (set to 37° C. and 5% CO2, saturated with water vapor). The culture was diluted with 10% serum-supplemented medium to a cell density of 5000 cells/well/100 μL, and seeded on an Ultra-Low Attachment 96-well plate (Cat. #7007, manufactured by Corning Incorporated). The cells were cultured for 4 days to form spheroids.
The methanesulfonate of Compound A and gemcitabine were dissolved in DMSO to prepare 10 mmol/L DMSO solutions thereof. The thus-prepared DMSO solutions were diluted sequentially with DMSO to prepare DMSO solutions having a final treatment concentration of 1000-fold dilution. Cisplatin was dissolved in DMSO to prepare a 100 mmol/L DMSO solution. The thus-prepared DMSO solution of cisplatin was diluted with DMSO to prepare a DMSO solution having a final treatment concentration of 5000-fold dilution. Further, the DMSO solution of cisplatin was diluted with 10% serum-supplemented medium to prepare a cisplatin-containing medium having a final treatment concentration of 10-fold dilution. The DMSO diluted solutions of Compound A and gemcitabine were diluted with the cisplatin-containing medium to prepare treatment liquids having a final treatment concentration of 10-fold dilution. Compound A and gemcitabine were used with a maximum concentration of 10 μmol/L at a common ratio of 1/3 and 9 concentrations in combination with cisplatin (10 μmol/L).
(§6) 10 μL of Compound A or gemcitabine diluted with the cisplatin-containing medium was added to each well. In addition, a group in which only a solvent containing no drug was added to wells in which cells were seeded (positive control), and a group in which only a solvent containing no drug was added to wells containing only a medium (negative control) were provided. All groups were set to n=3 well.
(§7) The cells were cultured for 3 days after the addition of the drug, and the cell viability was evaluated using a CellTiter Glo (registered trademark) Reagent (Cat. #G7570, manufactured by Promega Corporation) with the intracellular ATP level as an index. The concentration that inhibits cell viability by 50% (IC50 value) was calculated using XLFit software Ver.3 (registered trademark, manufactured by CTC Laboratory Systems Corporation).
(§8) The cell viability of each well was determined with the luminescence signal level of the negative control being 0% cell viability and the luminescence signal level of the positive control being 100% cell viability. The average value and standard deviation of the cell viability of each treatment group were calculated to prepare Table 10.

[2] = tested on: human cholangiocarcinoma-derived cell line HuCC-T1; experiment: Cell viability (CellTiter Glo) of HuCC-T1 in combination with cisplatin; format: cell-based; conditions: for viability at 0.0015 µM / viability at 0.0046 µM / viability at 0.0137 µM / viability at 0.0412 µM / viability at 0.1235 µM / viability at 0.3704 µM / viability at 1.1111 µM / viability at 3.3333 µM / viability at 10 µM / IC50: Homo sapiens; for viability at 0.0015 µM / viability at 0.0046 µM / viability at 0.0137 µM / viability at 0.0412 µM / viability at 0.1235 µM / viability at 0.3704 µM / viability at 1.1111 µM / viability at 3.3333 µM / viability at 10 µM: HuCCT-1, 72 h, with cisplatin 10 μmol/L, 3 days; for viability at 0.0015 µM: test substance 1.5 nM; for viability at 0.0046 µM: test substance 4.6 nM; for viability at 0.0137 µM: test substance 13.7 nM; for viability at 0.0412 µM: test substance 41.2 nM; for viability at 0.1235 µM: test substance 123.5 nM; for viability at 0.3704 µM: test substance 370.4 nM; for viability at 1.1111 µM: test substance 1111.1 nM; for viability at 3.3333 µM: test substance 3333.3 nM; for viability at 10 µM: test substance 10000.0 nM; for IC50: HuCCT-1, used in combination with cisplatin (10 μmol/L, Table 8); for CI: combination with cisplatin
From the text: as §1, §2, §3
Evaluation of antitumor activity against human cholangiocarcinoma-derived cell line HuCC-T1 in combination with cisplatin
Furthermore, the antitumor activity against the human cholangiocarcinoma-derived cell line HuCC-T1 in combination with cisplatin was evaluated in the same manner as in Test Example 1.
as §4
as §5, with “DMSO” for “dimethyl sulfoxide (DMSO)”, “serum-free RPMI-1640 medium (Cat. #11875-119, manufactured by Thermo Fisher Scientific Inc.)” for “DMSO”
Human cholangiocarcinoma cell line HuCC-T1 cells were subcultured in RPMI-1640 medium supplemented with 10% serum (Cat. #10437-028, manufactured by Thermo Fisher Scientific Inc.). During this test, all cell cultures were carried out in a CO2 incubator (set to 37° C. and 5% CO2, saturated with water vapor). The culture was diluted with a 10% serum-supplemented medium to a cell density of 15000 cells/well/100 μL and the cells were seeded on a 96-well plate. On the next day, the culture supernatant of each well was discarded, followed by washing twice with 150 μL of serum-free medium, and 100 μL of serum-free medium was added thereto, followed by culturing for 3 days.
The methanesulfonate of Compound A and gemcitabine were dissolved in DMSO to prepare […] DMSO solutions thereof. The thus-prepared DMSO solutions were diluted sequentially with DMSO to prepare DMSO solutions having a final treatment concentration of 1000-fold dilution. Cisplatin was dissolved in serum-free medium to prepare a cisplatin solution 60 μmol/L. The DMSO diluted solutions of Compound A and gemcitabine were diluted with the cisplatin solution (60 μmol/L) to prepare treatment liquids having a final treatment concentration of 6-fold dilution. Compound A and gemcitabine were used with a maximum concentration of 10 μmol/L at a common ratio of 1/3 and 9 concentrations in combination with cisplatin.
as §6, with “20” for “10”, “cisplatin solution (60 μmol/L)” for “cisplatin-containing medium”
as §7
as §8, with “8.” for “10.”

Structure (SMILES) | viability at 0.001 µM [1] [%] | viability at 0.003 µM [1] [%] | viability at 0.01 µM [1] [%] | viability at 0.03 µM [1] [%] | viability at 0.1 µM [1] [%] | viability at 0.3 µM [1] [%] | viability at 1 µM [1] [%] | viability at 3 µM [1] [%] | viability at 10 µM [1] [%] | IC50 [1] [nM] | CI [1] | viability at 0.0015 µM [2] [%] | viability at 0.0046 µM [2] [%] | viability at 0.0137 µM [2] [%] | viability at 0.0412 µM [2] [%] | viability at 0.1235 µM [2] [%] | viability at 0.3704 µM [2] [%] | viability at 1.1111 µM [2] [%] | viability at 3.3333 µM [2] [%] | viability at 10 µM [2] [%] | other results
Nc1ccn([C@@H]2S[C@H](CO)[C@@H](O)[C@@H]2F)c(=O)n1 [Compound A, 1-(2-deoxy-2-fluoro-4-thio-β-D-arabinofuranosyl)cytosine] | 95 | 93 | 87 | 77 | 58 | 41 | 36 | 35 | 34 | 165 | 0.42 | 117 | 114 | 110 | 96 | 66 | 44 | 40 | 36 | 34 | IC50 [2]: 261 nM; CI [2]: 0.34
Nc1ccn([C@@H]2O[C@H](CO)[C@@H](O)C2(F)F)c(=O)n1 [Gemcitabine] | 94 | 96 | 94 | 90 | 88 | 84 | 79 | 73 | 50 | ≥ 10000 | 0.79 | 114 | 113 | 116 | 113 | 116 | 113 | 103 | 83 | 56 | IC50 [2]: ≥ 10000 nM; CI [2]: 0.90

Reference: patent US20200405752A1, “ANTITUMOR AGENT, ANTITUMOR EFFECT ENHANCER, AND ANTITUMOR KIT” (FUJIFILM Corporation, priority 2018, published 2020)
